Assays:
Assay in all cases: cells
Set-up in all cases: species or system NCI human tumour cell line panel
HOP-92 = conditions: Homo sapiens, HOP-92; growth inhibition (GI%), single dose
HCT-15 = conditions: Homo sapiens, HCT-15; growth inhibition (GI%), single dose
SF-295 = conditions: Homo sapiens, SF-295; growth inhibition (GI%), single dose
HCT-116 = conditions: Homo sapiens, HCT-116; growth inhibition (GI%), single dose
SNB-75 = conditions: Homo sapiens, SNB-75; growth inhibition (GI%), single dose
MCF7 = conditions: Homo sapiens, MCF7; growth inhibition (GI%), single dose
HS 578T = conditions: Homo sapiens, Hs-578T; growth inhibition (GI%), single dose
BT-549 = conditions: Homo sapiens, BT-549; growth inhibition (GI%), single dose
RPMI-8226 = conditions: Homo sapiens, RPMI-8226; growth inhibition (GI%), single dose
SF-268 = conditions: Homo sapiens, SF-268; growth inhibition (GI%), single dose
KM12 = conditions: Homo sapiens, KM12; growth inhibition (GI%), single dose
TK-10 = conditions: Homo sapiens, TK-10; growth inhibition (GI%), single dose
SF-539 = conditions: Homo sapiens, SF-539; growth inhibition (GI%), single dose
MDA-MB-468 = conditions: Homo sapiens, MDA-MB-468; growth inhibition (GI%), single dose
NCI-H226 = conditions: Homo sapiens, NCI-H226; growth inhibition (GI%), single dose
UACC-62 = conditions: Homo sapiens, UACC-62; growth inhibition (GI%), single dose
T-47D = conditions: Homo sapiens, T47D; growth inhibition (GI%), single dose
SK-OV-3 = conditions: Homo sapiens, SK-OV-3; growth inhibition (GI%), single dose
OVCAR-5 = conditions: Homo sapiens, OVCAR-5; growth inhibition (GI%), single dose
M14 = conditions: Homo sapiens, M14; growth inhibition (GI%), single dose
NCI-H522 = conditions: Homo sapiens, NCI-H522; growth inhibition (GI%), single dose
HL-60(TB) = conditions: Homo sapiens, HL-60; growth inhibition (GI%), single dose
NCI-H322M = conditions: Homo sapiens, NCI-H322M; growth inhibition (GI%), single dose
786-0 = conditions: Homo sapiens, 786-0; growth inhibition (GI%), single dose
PC-3 = conditions: Homo sapiens, PC-3; growth inhibition (GI%), single dose
SN12C = conditions: Homo sapiens, SN12C; growth inhibition (GI%), single dose
LOX IMVI = conditions: Homo sapiens, LOX IMVI; growth inhibition (GI%), single dose
MDA-MB-435 = conditions: Homo sapiens, MDA-MB-435; growth inhibition (GI%), single dose
U251 = conditions: Homo sapiens, U-251; growth inhibition (GI%), single dose
UO-31 = conditions: Homo sapiens, UO-31; growth inhibition (GI%), single dose

## N#Cc1nnn(-c2ccc(S(N)(=O)=O)cc2)c1NC(=O)CCl [compound 5, 5]
HOP-92
  inhibition at 10 µM: 3.9%
HCT-15
  inhibition at 10 µM: 4.1%
SF-295
  inhibition at 10 µM: 1.8%
HCT-116
  inhibition at 10 µM: 5.4%
SNB-75
  inhibition at 10 µM: 14.5%
MCF7
  inhibition at 10 µM: 9.1%
HS 578T
  inhibition at 10 µM: 99.8%
BT-549
  inhibition at 10 µM: 3.1%
RPMI-8226
  inhibition at 10 µM: 8.7%
SF-268
  inhibition at 10 µM: 2.5%
KM12
  inhibition at 10 µM: 5.2%
TK-10
  inhibition at 10 µM: 3.6%
SF-539
  inhibition at 10 µM: 1.3%
MDA-MB-468
  inhibition at 10 µM: 1.3%
NCI-H226
  inhibition at 10 µM: 4.6%
UACC-62
  inhibition at 10 µM: 3.4%
T-47D
  inhibition at 10 µM: 4.8%
SK-OV-3
  inhibition at 10 µM: 3.5%
OVCAR-5
  inhibition at 10 µM: 3.4%
M14
  inhibition at 10 µM: 4.7%
NCI-H522
  inhibition at 10 µM: 5.1%
HL-60(TB)
  inhibition at 10 µM: 22.5%
NCI-H322M
  inhibition at 10 µM: 6.6%
786-0
  inhibition at 10 µM: 2.1%
PC-3
  inhibition at 10 µM: 10.3%
SN12C
  inhibition at 10 µM: 11.8%
LOX IMVI
  inhibition at 10 µM: 5.5%
MDA-MB-435
  inhibition at 10 µM: 0.4%
U251
  inhibition at 10 µM: 7.7%
UO-31
  inhibition at 10 µM: 13.5%
